Results taken from PMC5788402, “Impact of Target Warhead and Linkage Vector on Inducing Protein Degradation: Comparison of Bromodomain and Extra-Terminal (BET) Degraders Derived from Triazolodiazepine (JQ1) and Tetrahydroquinoline (I-BET726) BET Inhibitor Scaffolds” (Journal of Medicinal Chemistry, 2017).

Experiments:
[1] = target: VCB / Brd4^BD2 ternary complex (Homo sapiens, UniProt O60885+P40337); experiment: ITC ternary titration, VCB into Brd4^BD2–PROTAC complex; type: binding; conditions: for α: cooperativity, ratio between binary and ternary Kd; for α / ΔpKd ± uncertainty: Brd4^BD2; for cooperativity (α) Brd4–BD2: ternary complex formation with VCB and Brd4^BD2, as tabulated in Table 2; for ΔpKd ± uncertainty: ternary vs binary; for stoichiometry N / ΔG / ΔH / –TΔS: ternary, VCB in syringe, Brd4^BD2–PROTAC in cell
Brd4^BD2 = Brd4^BD2 (Homo sapiens, UniProt O60885); experiment: ITC binary titration, Brd4^BD2 into PROTAC; type: binding; conditions: Brd4^BD2 in syringe, PROTAC in cell
[2] = target: VHL-EloC-EloB protein (VCB) (Homo sapiens, UniProt P40337); experiment: ITC binary titration, VCB into PROTAC; type: binding; conditions: VCB in syringe, PROTAC in cell
[3] = tested on: BET proteins Brd2, Brd3, Brd4; experiment: BET degradation profile in HeLa cells; type: cell-based; conditions: 24 h

Compound | α [1] | cooperativity (α) Brd4–BD2 [1] | ΔpKd ± uncertainty [1] | stoichiometry N [1] | ΔG [1] | ΔH [1] | –TΔS [1] | stoichiometry N (Brd4^BD2) | ΔG (Brd4^BD2) | ΔH (Brd4^BD2) | stoichiometry N [2] | ΔG [2] | ΔH [2] | –TΔS [2] | –TΔS (Brd4^BD2) | concentration with increased levels of BET proteins (hook effect) [3] [µM]
Cc1ncsc1-c1ccc(CNC(=O)[C@@H]2C[C@@H](O)CN2C(=O)[C@@H](NC(=O)COCCOCCNC(=O)C[C@@H]2N=C(c3ccc(Cl)cc3)c3c(sc(C)c3C)-n3c(C)nnc32)C(C)(C)C)cc1 [compound 5, (2S,4R)-1-((S)-2-(tert-Butyl)-14-((S)-4-(4-chlorophenyl)-2,3,9-trimethyl-6H-thieno[3,2-f][1,2,4]triazolo[4,3-a][1,4]diazepin-6-yl)-4,13-dioxo-6,9-dioxa-3,12-diazatetradecanoyl)-4-hydroxy-N-(4-(4-methylthiazol-5-yl)benzyl)pyrrolidine-2-carboxamide] | 5.7 | 5.7 | 0.78 ± 0.16 | 0.76 ± 0.06 | –10.4 ± 0.2 kcal·mol^–1 | –5.36 ± 0.77 kcal·mol^–1 | –5.05 ± 0.62 kcal·mol^–1 | 0.81 ± 0.04 | –10.6 ± 0.06 kcal·mol^–1 | –11.2 ± 0.04 kcal·mol^–1 | 0.8 ± 0.05 | –9.34 ± 0.10 kcal·mol^–1 | –5.72 ± 0.47 kcal·mol^–1 | –3.61 ± 0.37 kcal·mol^–1 |  | 
CC(=O)N1c2ccc(-c3ccc(C(=O)NCCOCCOCCOCC(=O)N[C@H](C(=O)N4C[C@H](O)C[C@H]4C(=O)NCc4ccc(-c5scnc5C)cc4)C(C)(C)C)cc3)cc2[C@H](Nc2ccc(Cl)cc2)C[C@@H]1C [compound 9, (2S,4R)-1-((S)-1-(4-((2S,4R)-1-Acetyl-4-((4-chlorophenyl)amino)-2-methyl-1,2,3,4-tetrahydroquinolin-6-yl)phenyl)-15-(tert-butyl)-1,13-dioxo-5,8,11-trioxa-2,14-diazahexadecan-16-oyl)-4-hydroxy-N-(4-(4-methylthiazol-5-yl)benzyl)pyrrolidine-2-carboxamide] | 0.5 | 0.46 | –0.34 ± 0.12 | 1.44 ± 0.02 | –9.06 ± 0.09 kcal·mol^–1 | –6.90 ± 0.11 kcal·mol^–1 | –2.16 ± 0.14 kcal·mol^–1 | 1.15 ± 0.01 | –11.5 ± 0.3 kcal·mol^–1 | –9.74 ± 0.10 kcal·mol^–1 | 0.96 ± 0.01 | –9.52 ± 0.13 kcal·mol^–1 | –6.18 ± 0.12 kcal·mol^–1 | –3.34 ± 0.18 kcal·mol^–1 | –1.73 ± 0.30 kcal·mol^–1 | 1 to 10
